A word on the melting point: it is the temperature of the solid-liquid transition. Compound `O=C(O)c1cn2c3c(c(Cl)c(F)cc3c1=O)SCC2` gave a melting point of 322 to 324 °C.

For `Cc1nc(-c2ccc(C#N)cc2)sc1C(=O)N(CCO)[C@H](C)[C@](O)(Cn1cncn1)c1ccc(F)cc1F`, the melting point is 113 to 119 °C.

`CCCC12CCC3C4CCC(=O)C=C4CCC3C1CCC2(C)O` (centres undefined) came in with a melting point of 134 to 136 °C. In the case of `CCn1cc(C(=O)O)c(=O)c2cc(Cl)c(N3CCNCC3)cc21`, the melting point was 228 to 232 °C. The compound `O=C(OC1CCCCC1)c1ncn2c1[C@@H]1CCCN1C(=O)c1c(Br)cccc1-2` yielded a melting point of 167 to 168 °C.

Turning to `CCCCc1nn(-c2cc(NC(=O)CC)ccc2C(F)(F)F)c(=O)n1Cc1ccc(-c2ccccc2S(=O)(=O)NC(=O)OC(C)(C)C)cc1F`, the melting point was in the range of 167 to 169 °C. `CNC(=O)OCc1nc(C(C)C)c(Sc2cc(Cl)cc(Cl)c2)n1C` yielded a melting point of 112 to 113 °C. Regarding `CCc1ccc(C2CCCCC2)nc1`, the melting point was 79 to 81 °C. `NC(=O)c1cc2c(Sc3ccccn3)cncc2s1` gave a melting point of 239 to 242 °C.

`O=c1c(C2=Nc3ccccc3S(=O)(=O)N2)c(O)c2ccccc2n1CCCC(F)(F)F` showed a melting point of 249 to 250 °C. `CS(=O)(=O)c1ccc(-c2cnn(-c3cccc(C(F)(F)F)c3)c(=O)c2-c2ccc(Cl)cc2)cc1` registered a melting point of 103 to 105 °C.

For the compound `COc1ccc2c(c1)c1c3c(c(-c4c(Cl)cccc4OC)cc1n2CCCO)C(=O)NC3=O`, the melting point was 224 to 227 °C.

In turn, `CC(C)Cc1ccc2nc(Cl)c(S(N)(=O)=O)n2n1` displayed a melting point of 168 to 170 °C. `CC(O)C#Cc1cc(F)c2ncc(C(=O)NCc3ccc(Cl)cc3)c(O)c2c1` (centres undefined) came in with a melting point of 232 to 234 °C. The compound `CC1COc2c(F)c(F)cc3c(=O)c(C(=O)O)cn1c23` (centres undefined) displayed a melting point of over 280 °C.

In turn, `CCOC(=O)NC1Cc2ccccc2C1` registered a melting point of 68 to 68.5 °C. Next, `CC(C)(C)OC(=O)NC(CO)COc1noc2ccc(NC=O)cc12` (centres undefined): 104 to 105 °C. With `Cc1cc2c(c(C)c1O)CCC(C)(C#N)O2` (centres undefined), the melting point turned out to be 135 °C. Compound `CC(C)(C)c1ccc(-c2ccc3c(c2)C=C(C(=O)O)CCO3)cc1` registered a melting point of 259 to 261 °C. Regarding `COc1ccc(-c2cc(=O)n(CCN3CCOCC3)nc2-c2ccc(OC)cc2)cc1`, the melting point was in the range of 145 to 146 °C. Compound `CC(=CCO)c1ccc(-c2ccc(Br)cc2)cc1` came in with a melting point of 145 to 148 °C. `COC(Cc1cc(C)c(OCCc2nc(C(C)(C)C)oc2C)c(C)c1)C(=O)O` (centres undefined) came in with a melting point of 78 to 80 °C. In turn, `CNc1nccc(-c2c(-c3ccc(F)cc3)ncn2C2CC(C)(C)NC(C)(C)C2)n1` gave a melting point of 221 to 222 °C.

For the compound `O=C(O)c1ccnc2[nH]ccc12`, the melting point was over 300 °C. On to `COc1ccc(-c2csc(Nc3ccc(C)cn3)n2)cc1OC`, for which the melting point was 190 to 192 °C. `OCCCCCCCCCCCOc1ccc(-c2nc(-c3ccccc3)nc(-c3ccc(OCCCCCCCCCCCO)cc3O)n2)c(O)c1` returned a melting point of 126 to 135 °C.

The compound `CCCN1CC(c2cccc(Cl)c2)=C(c2ccc(S(N)(=O)=O)cc2)C1=O` came in with a melting point of 149 to 150 °C. In the case of `COc1cc(NC(=O)CCCCCN2CCN(C)CC2)c2nccc(C)c2c1`, the melting point fell in the range of 104 to 107 °C.

On to `Nc1nc(N)c(C(=O)N=CNN2CCSCC2)nc1Cl`, for which the melting point is 234 to 236 °C. As to `C#CCC#CCC#CCOc1ccc(C)cc1`, the melting point was in the range of 34.5 to 35.5 °C. `CC(=O)NCC(=O)Nc1cc(Cl)cc(Nc2ncnc3[nH]cc(C(=O)c4ccccc4)c23)c1` had a melting point of over 300 °C.

In the case of `Cc1ccc(S(=O)(=O)N(CC(=O)OCc2ccccc2)c2ccc(Cl)cc2C(=O)c2ccccc2Cl)cc1`, the melting point was in the range of 99 to 101 °C. In the case of `CCOC(=O)c1cn(N)c2cc3c(cc2c1=O)OCO3`, the melting point lay in the range of 251 to 253 °C. Next, `CN1CC(=O)N2[C@H](c3ccc4c(c3)CCN4)c3[nH]c4ccccc4c3C[C@@H]2C1=O`: 240 °C.

Values taken from a melting point compilation (Tetko et al.; mined from patent text by program, amines drawn as free bases though some values may be those of a salt).
